According to article PMC6328587 (Nature Communications, 2019):

What was measured:
wild-type p38δ = target: T1, wild-type p38δ (Homo sapiens, UniProt O15264); assay: Degradation of transfected wild-type p38δ in HeLa cells; format: cell-based; conditions: 24 h
T1 construct: expressed in transfected cells; host or cells: HeLa
T1 sequence (O15264 1-365): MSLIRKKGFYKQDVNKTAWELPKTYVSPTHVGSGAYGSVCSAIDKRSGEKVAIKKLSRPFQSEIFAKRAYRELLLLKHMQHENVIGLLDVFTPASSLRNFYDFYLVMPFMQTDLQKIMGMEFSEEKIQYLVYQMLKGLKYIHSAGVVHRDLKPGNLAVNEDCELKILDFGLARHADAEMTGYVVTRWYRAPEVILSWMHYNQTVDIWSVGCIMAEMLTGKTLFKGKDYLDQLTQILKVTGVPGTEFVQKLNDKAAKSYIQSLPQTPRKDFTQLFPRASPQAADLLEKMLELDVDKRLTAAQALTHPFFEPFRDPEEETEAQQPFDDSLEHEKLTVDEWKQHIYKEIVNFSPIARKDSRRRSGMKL
Experimental: Mutant p38δ was generated by QuikChange Lightning site-directed mutagenesis kit (Agilent). Transfections were carried out using Lipofectamine 2000 reagent (Invitrogen) in HeLa cells seeded at 3 × 10^5 cells per six well. One microgram of FLAG-containing pcDNA5-p38delta-WT or pcDNA5-p38delta-K220ET221E was used per transfection. Opti-MEM media were changed after 6 h to DMEM (1 × ), at which point the indicated compounds were added for 24 h before harvesting.

[1] = target: T2, p38δ:PROTAC:VHL ternary complex (Homo sapiens, UniProt O15264+P40337); assay: In vitro ternary complex pull-down, GST-VBC bait, purified p38δ; format: binding; conditions: dose-dependent
T2 construct: encoding a region spanning amino acids 1–365; His6 (N); made in house; host or cells: E. coli BL21-CodonPlus(DE3)-RIPL (p38δ); E. coli BL21(DE3) (GST-VBC)
Experimental: Glutathione Sepharose 4B (Glutathione-conjugated beads in a slurry containing 20% ethanol) were washed twice with 1X wash buffer (50 mM HEPES pH 7.5, 150 mM NaCl, 1 mM DTT, 0.01% NP40, 5 mM MgCl2, 10% Glycerol) and then blocked for 1 h at room temperature with 10% bovine serum albumin (BSA) in wash buffer. The beads were then washed again three times with wash buffer and then purified GST-VBC (stable form of VHL complexed with EloB/EloC, described above) was immobilized for 1 h at 4 °C at 3.6 pmole µL^–1 of beads. The beads were then washed three times with wash buffer, resuspended, divided into two equal volumes, and p38α or p38δ protein was added. The bead:p38 mixture was then aliquoted to separate tubes and PROTAC was added at the indicated concentration (PROTACs were intermediately diluted in 10% DMSO and 0.25% CHAPS). This mixture was incubated at 4 °C for 2 h. The beads were washed three times with 10 column volumes of wash buffer and then eluted with SDS loading buffer at 75 °C for 10 min.

α-tubulin = assay: CETSA in MDA-MB-231 cell lysate, negative control protein; format: binding, human; conditions: 100 µM PROTAC, 51-55 °C, vs DMSO
Experimental: CETSA protocol was adapted from[60]. In all, 3 × 10^7 MDA-MB-231 cells (1 × 10^7 cells per condition) were collected and resuspended in ice-cold 1X PBS supplemented with 1X protease inhibitor cocktail (Roche) and lysed by three cycles of liquid nitrogen snap freeze, followed by 50% thaw in a room temperature water bath and an additional 50% thaw at 4 °C. After each freeze–thaw cycle, lysate was vortexed briefly to ensure homogenous thawing. Lysate was then cleared for 20 min by centrifugation (14,000 × g at 4 °C) and the soluble fraction was divided into three equal aliquots. The aliquots were treated with vehicle (2.5% DMSO), 100 µM SJFα, or 100 µM SJFδ and incubated at room temperature for 30 min with gentle rotation. Each aliquot was then divided (50 µL) into eight PCR tubes and individually heated at the indicated temperature for 3 min followed by cooling at room temperature for 3 min. After cooling, samples were spun down for 20 min (14,000 × g at 4 °C) and the supernatant (soluble fraction) was analyzed by SDS-PAGE and immunoblotted for p38δ and alpha-tubulin (negative control).

p38β = target: T3, p38β (Homo sapiens, UniProt Q15759); assay: p38β degradation, western blot in MDA-MB-231 cells; format: cell-based; conditions: concentrations up to 2.5 µM
T3 construct: endogenous in cells; host or cells: MDA-MB-231
Experimental: […] once with ice-cold PBS (1 × ), followed by lysis in buffer containing 25 mM Tris [pH 7.5], 0.25% sodium deoxycholate, 1% Triton X-100, supplemented with 1X protease inhibitor cocktail (Roche), and phosphatase inhibitors (10 mM NaF, 1 mM Na3VO4, and 20 mM β-glycerophosphate), unless otherwise noted. Lysates were spun at 14,000 × g for 10 min at 4 °C and supernatant was evaluated for protein content using a Pierce BCA Protein Assay (ThermoFisher Scientific). In all experiments, 25–50 μg of protein was loaded onto 10% SDS-PAGE gels or 4–20% Criterion TGX precast gradient gels (Bio-Rad), transferred to nitrocellulose membranes, and probed with the specified antibodies overnight at 4 °C in 1X TBS-Tween (Tris-buffered saline plus 0.02% Tween 20) containing 5% non-fat milk. Immunoblots were visualized using a Bio-Rad ChemiDoc imaging instrument and subsequently processed and quantified using the accompanying Bio-Rad ImageLab software. See Supplementary Figure 8 for uncropped scans of western blots shown in the main text figures.
Supplementary Figure 4 cont.
Supplementary Figure 4. Characterization of M APK fam ily degradation selectivity (related to Figures 1-2). (a) p38 M APK fam ily m em bers (α, β, δ, γ) were aligned using the T-Coffee multiple sequence alignm ent server. […] Note: JNK1 and JNK2 are expressed as two alternatively-spliced form s. […]

T3 sequence (Q15759 whole entry): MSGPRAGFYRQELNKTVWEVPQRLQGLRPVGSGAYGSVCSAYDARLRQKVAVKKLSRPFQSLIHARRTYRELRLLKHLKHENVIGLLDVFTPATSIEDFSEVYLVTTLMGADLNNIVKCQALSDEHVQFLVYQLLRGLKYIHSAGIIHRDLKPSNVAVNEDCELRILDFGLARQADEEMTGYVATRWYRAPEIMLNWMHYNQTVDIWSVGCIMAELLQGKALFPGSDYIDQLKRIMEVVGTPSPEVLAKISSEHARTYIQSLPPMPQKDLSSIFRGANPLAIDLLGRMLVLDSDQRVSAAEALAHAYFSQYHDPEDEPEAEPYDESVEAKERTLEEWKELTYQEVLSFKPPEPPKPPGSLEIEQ
T2 sequence (P40337 whole entry, one chain of several, the tested form may be a part): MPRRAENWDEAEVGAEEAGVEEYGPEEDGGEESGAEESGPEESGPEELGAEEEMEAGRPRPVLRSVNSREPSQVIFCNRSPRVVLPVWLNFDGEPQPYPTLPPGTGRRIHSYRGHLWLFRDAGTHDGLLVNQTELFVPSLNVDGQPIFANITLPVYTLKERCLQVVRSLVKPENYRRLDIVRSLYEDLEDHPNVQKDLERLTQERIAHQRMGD
T2 sequence (Q15370 whole entry partner, one chain of several, the tested form may be a part): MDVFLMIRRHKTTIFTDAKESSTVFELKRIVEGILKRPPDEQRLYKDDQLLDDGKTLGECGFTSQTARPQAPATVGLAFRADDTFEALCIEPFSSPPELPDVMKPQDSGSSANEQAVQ
T2 sequence (Q15369 whole entry partner, one chain of several, the tested form may be a part): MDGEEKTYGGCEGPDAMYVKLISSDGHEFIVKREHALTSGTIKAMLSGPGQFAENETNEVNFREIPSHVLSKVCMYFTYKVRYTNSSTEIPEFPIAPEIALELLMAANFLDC

Row | degradation of wild-type p38δ (wild-type p38δ) | pull-down of purified p38δ on GST-VBC-coated beads [1] | p38β degradation (p38β) | Structure (SMILES) | thermal shift of α-tubulin (α-tubulin)
1 | not wild-type p38δ | can pull-down purified p38δ | does not degrade | COc1cc2c(Oc3ccc(NC(=O)C4(C(=O)Nc5ccc(F)cc5)CC4)cc3F)ccnc2cc1OCCCCOCCCCOCC(=O)N[C@H](C(=O)N1C[C@H](O)C[C@H]1C(=O)NCc1ccc(-c2scnc2C)cc1)C(C)(C)C [SJFα] | thermal shifts were not seen
2 | able to eliminate wild-type p38δ | can pull-down purified p38δ | does not degrade | COc1cc2c(Oc3ccc(NC(=O)C4(C(=O)Nc5ccc(F)cc5)CC4)cc3F)ccnc2cc1OCCOCCOCCOc1cc(-c2scnc2C)ccc1CNC(=O)[C@@H]1C[C@@H](O)CN1C(=O)[C@H](C(C)C)N1Cc2ccccc2C1=O [SJFδ] | thermal shifts were not seen
